Read-outs that look alike come from different tables or passages of the source.
Legend:
Type in all cases: in vivo
[1] = tested on: LOLSS: ryegrass including, Italian ryegrass (Lolium multiflorum), rigid ryegrass (Lolium rigidum), annual ryegrass (Lolium multiflorum subsp. Gaudini); assay: Post-emergent Test III, herbicidal activity in wheat and barley; settings: probit analysis
Summary of the method: (§1)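 Plants at the second to third true-leaf stage, grown in a greenhouse at about 18/17 °C with a 14 h photoperiod, were sprayed post-emergence at 187 L/ha with the high rate and ½× to 1/16× serial dilutions in an acetone/DMSO/crop-oil/surfactant carrier. Injury was rated visually at 21 d on a 0–100% scale, and GR20–GR90 were derived by probit analysis.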

LAMSS = assay: as above; settings: for pest or weed control at 35 g/ha: 35 g ai/ha; for pest or weed control at 70 g/ha: 70 g ai/ha; for GR50 LAMSS / GR80 LAMSS: probit analysis
Summary of the method: as §1

[2] = tested on: test plant species in Direct Seeded Rice; assay: Postemergence herbicidal activity in direct seeded rice (Table 13); settings: for pest or weed control at 35 g/ha / pest or weed control at 70 g/ha: post-emergence, 504 h; for pest or weed control at 35 g/ha: 35 g ai/ha; for pest or weed control at 70 g/ha: 70 g ai/ha
Summary of the method: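 Greenhouse-grown plants at the second or third true leaf stage were sprayed postemergence at 187 L/ha with compound in acetone/DMSO (final 16.2%/0.5%) plus aqueous Agri-dex crop oil concentrate; controls got solvent blank. Injury was rated visually 0–100% after 20-22 days, and GR20, GR50, GR80 and GR90 derived by probit analysis.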

[3] = dose for growth reduction of 50 percent, 21 days after application
[4] = dose for growth reduction of 80 percent, 21 days after application
[5] = post-emergence, 504 h, read-out: Visual Growth Reduction (%) 21 Days After Application LAMSS
[6] = BRAPP: broadleaf signalgrass, Brachiaria platyphylla, probit analysis
[7] = CYPSS: sedge (Cyperus difformis, esculentus, iria), probit analysis
[8] = ECHSS: barnyardgrass (Echinochloa crus-galli), junglerice (Echinochloa colonum), probit analysis
[9] = LEFSS: sprangletop (Leptochloa chinensis, Leptochloa dubia), probit analysis
[10] = SCPJU: Japanese bulrush, Scirpus juncoides, probit analysis
[11] = SEBEX: hemp sesbania, Sesbania exaltata, probit analysis
[12] = BRAPP: broadleaf signalgrass, Brachiaria platyphylla, read-out: Visual Growth Reduction (%) 21 Days After Application BRAPP
[13] = CYPSS: sedge (Cyperus difformis, esculentus, iria), read-out: Visual Growth Reduction (%) 21 Days After Application CYPSS
[14] = ECHSS: barnyardgrass (Echinochloa crus-galli), junglerice (Echinochloa colonum), read-out: Visual Growth Reduction (%) 21 Days After Application ECHSS
[15] = LEFSS: sprangletop (Leptochloa chinensis, Leptochloa dubia), read-out: Visual Growth Reduction (%) 21 Days After Application LEFSS
[16] = ORYSS: Oryza sativa, read-out: Visual Growth Reduction (%) 21 Days After Application ORYSS
[17] = SCPJU: Japanese bulrush, Scirpus juncoides, read-out: Visual Growth Reduction (%) 21 Days After Application SCPJU
[18] = SEBEX: hemp sesbania, Sesbania exaltata, read-out: Visual Growth Reduction (%) 21 Days After Application SEBEX
[19] = Table 9, dose for 50 percent growth reduction, 21 d
[20] = Table 9, dose for 80 percent growth reduction, 21 d
[21] = Table 8, dose for 50 percent growth reduction, 21 d
[22] = Table 8, dose for 80 percent growth reduction, 21 d
[23] = post-emergence, 504 h, Table 8, post-emergent, 21 d, read-out: Visual Growth Reduction (%) 21 Days After Application LAMSS

Structure (SMILES): Nc1cc(-c2ccc(Br)c(F)c2F)nc(C(=O)O)c1Cl [Compound 91]
- GR50 LOLSS [1, 3]: >140 g ai/ha
- GR80 LOLSS [1, 4]: >140 g ai/ha
- pest or weed control at 35 g/ha (LAMSS; [5]): 95 to 100%
- pest or weed control at 70 g/ha (LAMSS; [5]): 95 to 100%
- pest or weed control at 140 g/ha (LAMSS; post-emergence, 504 h, 140 g ai/ha, read-out: Visual Growth Reduction (%) 21 Days After Application LAMSS): 95 to 100%
- GR50 LAMSS (LAMSS; [3]): 1 g ai/ha
- GR80 LAMSS (LAMSS; [4]): 3 g ai/ha

Structure (SMILES): COc1c(N)nc(-c2ccc(Br)c(F)c2F)nc1C(=O)O [Compound 8]
- GR50 BRAPP [2, 6]: 4 g ai/ha
- GR80 BRAPP [2, 6]: 9 g ai/ha
- GR50 CYPSS [2, 7]: 1 g ai/ha
- GR80 CYPSS [2, 7]: 1 g ai/ha
- GR50 ECHSS [2, 8]: 2 g ai/ha
- GR80 ECHSS [2, 8]: 6 g ai/ha
- GR50 LEFSS [2, 9]: >70 g ai/ha
- GR80 LEFSS [2, 9]: >70 g ai/ha
- GR20 ORYSS ([2]; ORYSS: Oryza sativa (crop), probit analysis): 2 g ai/ha
- GR50 SCPJU [2, 10]: 1 g ai/ha
- GR80 SCPJU [2, 10]: 1 g ai/ha
- GR50 SEBEX [2, 11]: 3 g ai/ha
- GR80 SEBEX [2, 11]: 5 g ai/ha
- pest or weed control at 35 g/ha [2, 12]: 95 to 100%
- pest or weed control at 70 g/ha [2, 12]: 95 to 100%
- pest or weed control at 35 g/ha [2, 13]: 95 to 100%
- pest or weed control at 70 g/ha [2, 13]: 95 to 100%
- pest or weed control at 35 g/ha [2, 14]: 95 to 100%
- pest or weed control at 70 g/ha [2, 14]: 95 to 100%
- pest or weed control at 35 g/ha [2, 15]: 0 to 29%
- pest or weed control at 70 g/ha [2, 15]: 30 to 44%
- pest or weed control at 35 g/ha [2, 16]: 75 to 84%
- pest or weed control at 70 g/ha [2, 16]: 85 to 94%
- pest or weed control at 35 g/ha [2, 17]: 95 to 100%
- pest or weed control at 70 g/ha [2, 17]: 95 to 100%
- pest or weed control at 35 g/ha [2, 18]: 95 to 100%
- pest or weed control at 70 g/ha [2, 18]: 95 to 100%

Structure (SMILES): C#Cc1ccc(-c2nc(N)c(OC)c(C(=O)O)n2)c(F)c1F [Compound 154]
- GR50 LOLSS [1, 19]: >140 g ai/ha
- GR80 LOLSS [1, 20]: >140 g ai/ha

Structure (SMILES): COC(=O)c1nc(-c2ccc(Br)cc2F)nc(N)c1OC [Compound 35]
- GR50 LOLSS [1, 19]: 126 g ai/ha
- GR80 LOLSS [1, 20]: >140 g ai/ha

Structure (SMILES): Nc1cc(-c2ccc(Br)c(F)c2)nc(C(=O)O)c1Cl [Compound 110, 4-Amino-6-(4-bromo-3-fluorophenyl)-3-chloropicolinic acid]
- GR50 LAMSS (LAMSS; [21]): 1 g ai/ha
- GR80 LAMSS (LAMSS; [22]): 1 g ai/ha
- pest or weed control at 35 g/ha (LAMSS; [23]): 95 to 100%
- pest or weed control at 70 g/ha (LAMSS; [23]): 95 to 100%

Structure (SMILES): COc1c(N)nc(-c2ccc(Br)cc2F)nc1C(=O)O [Compound 46]
- GR50 LOLSS [1, 19]: 118 g ai/ha
- GR80 LOLSS [1, 20]: >140 g ai/ha

Structure (SMILES): COc1c(N)nc(-c2ccc(Br)c(F)c2)nc1C(=O)O [Compound 113, 6-Amino-2-(4-bromo-3-fluorophenyl)-5-methoxypyrimidine-4-carboxylic acid]
- GR50 LAMSS (LAMSS; [21]): 1 g ai/ha
- GR80 LAMSS (LAMSS; [22]): 4 g ai/ha
- pest or weed control at 35 g/ha (LAMSS; [23]): 95 to 100%
- pest or weed control at 70 g/ha (LAMSS; [23]): 95 to 100%

From patent US9113629B2, “4-amino-6-(4-substituted-phenyl)-picolinates and 6-amino-2-(4-substituted-phenyl)-pyrimidine-4-carboxylates and their use as herbicides” (DOW AGROSCIENCES LLC, priority 2013, dated 2015)
